Reference: publication PMC11098465, “A comparative analysis of peptide-delivered antisense antibiotics using diverse nucleotide mimics” (RNA, 2024)

Key:
acpP mRNA = test: RNA-seq of KFF-ASO-treated Salmonella (acpP mRNA depletion); format: cell-based, Salmonella enterica serovar Typhimurium strain SL1344; set-up: key to acpP depletion (RNA-seq): +++: Effect strength is represented by additional (+) signs.; ++: Effect strength is represented by additional (+) signs.; Effect strength is represented by additional (+) signs; details: 15 min; for acpP depletion (RNA-seq): ASO conjugated to the carrier peptide, 5 µM, summary grade
Experimental: To assay bacterial responses to the different ASO modalities and to determine target mRNA depletion in cellulo, we performed RNA-seq analysis of Salmonella challenged with 5 µM KFF-ASO conjugates for 15 min. We first evaluated two individual RNA-seq experiments by principal component analysis (PCA) and observed three distinct clusters (Fig. 5). The PCA cluster 1 grouped the water control, RNA-MOE, RNA-OMe, and the PNA-treated conditions. […] Cluster 2 grouped the other negASOs. As we have previously observed for KFF peptide exposure ([Popella et al. 2021], [2022]), these treatments led to the activation of a cationic antimicrobial peptide (CAMP) response, including induction of the PhoP/Q and PmrA/B regulons involved in remodeling LPS, and the CpxR regulon that responds to envelope stress (Fig. 7). […] These treatments also led to the down-regulation of genes responsible for the destruction of superoxide anion radicals (sodB) and those involved in manganese efflux (yebN) (Figs. 6 and 7). Finally, cluster 3 grouped samples of the unconjugated peptides and the PMO treatment. Similarly to cluster 2, these activated a strong CAMP response (Fig. 7).
RNA isolation was performed using previously published protocols ([Popella et al. 2021], [2022]). Bacterial overnight cultures were diluted 1:100 in fresh MHB and grown to OD600 0.5. The cultures were diluted to ∼10^6 cfu/mL in noncation-adjusted MHB. […]
Total RNA was purified from bacterial pellets using the miRNeasy Mini kit (Qiagen) according to protocol #3 described in [Popella et al. (2021]). […] RNA concentration was measured with a NanoDrop spectrophotometer.
For transcriptomic analyses, RNA samples were processed and subjected to RNA-seq at the Core Unit SysMed (University of Würzburg). […] Sequencing of pooled libraries, spiked with 5% PhiX control library, was performed at 10 million reads/sample in single-end mode with 75 nt read length on the NextSeq 500 platform (Illumina) using High output sequencing kits. […]

AcpP::3xFLAG = test: Western blot of AcpP::3xFLAG protein levels after ASO treatment; format: cell-based, Salmonella enterica serovar Typhimurium SL1344 AcpP::3xFLAG; set-up: key to AcpP protein reduction: +++: Effect strength is represented by additional (+) signs.; ++: Effect strength is represented by additional (+) signs.; Effect strength is represented by additional (+) signs; details: for AcpP protein levels after treatment (in words): KFF-ASO 5 µM, 30, 60, 120 min; for AcpP protein reduction: KFF-ASO constructs at 5 µM, 120 min, summary grade
Description: We have previously shown that PNAs targeting acpP lead to rapid depletion of the target transcript ([Hör et al. 2022]; [Popella et al. 2022]; [Jung et al. 2023]), although this is not a universal phenomenon and varies from transcript to transcript ([Popella et al. 2022]). In other words, an ASO might block target protein synthesis without substantially impacting mRNA levels. Therefore, we wanted to test if the different ASO modalities affect AcpP protein levels in cellulo despite their inability to deplete the acpP transcript. We took advantage of Salmonella expressing a FLAG-tagged AcpP (AcpP::3xFLAG) protein from its native locus. First, we exposed the bacterial cells to PMO and PNA for 30, 60, or 120 min (Fig. 9A) to determine the best time point for our analysis.
Salmonella WT and SL1344 AcpP::3xFLAG were grown overnight in noncation adjusted MHB. Bacterial cultures were diluted 1:100, grown to OD600 0.5, and subsequently diluted to ∼10^6 cfu/mL in MHB. Then, 1.9 mL of each diluted bacterial solution was transferred into 5 mL low-binding tubes, preincubated at 37°C for 10 min, and treated with 100 µL of ASOs to adjust a final concentration of 5 µM. Water was added as negative control. The treatment with PNA and PMO was performed with aeration at 37°C and 220 rpm shaking for 30, 60, and 120 while for all other ASOs, they were treated for 120 min only. Subsequently, the cells were collected by centrifugation at 4°C and 16,000g for 5 min, resuspended in 1× Protein Loading Buffer (62.6 mM Tris–HCl pH 6.8, 2% SDS, 0.1 mg/mL bromophenol blue, 15.4 mg/mL DTT, 10% glycerol) and denatured at 95°C for 10 min.
For detection of AcpP::3xFLAG protein levels, samples were separated on a 12% SDS-PAA gel and transferred onto a nitrocellulose membrane via semi-dry western blotting. The membrane was probed with an α-FLAG antibody (Sigma; 1:1000 in 1× TBS-T containing 3% BSA) at 4°C overnight. After washing in 1× TBS-T, the membrane was incubated with a secondary HRP-conjugated antimouse antibody (Thermo Scientific; 1:5000 in 1× TBS-T containing 1% BSA) at RT for 1 h. Excessive antibody was removed by repeated wash-steps in 1× TBS-T, and the membrane was developed by an Amersham ECL Select Western Blotting Detection Reagent Kit (Cytiva).

Substance | acpP depletion (RNA-seq) (acpP mRNA) | AcpP protein levels after treatment (in words) (AcpP::3xFLAG) | AcpP protein reduction (AcpP::3xFLAG) | acpP mRNA levels after treatment (in words) (acpP mRNA; 5 µM KFF-ASO conjugates, RNA-seq)
PMO: phosphorodiamidate morpholino 10mer ASO, sequence CTCATACTCT, targeting acpP −5 to +5 (all phosphorodiamidate morpholino (PMO)) | + | gradual depletion of AcpP, albeit less pronounced than PNA | + | 
PNA: peptide nucleic acid 10mer ASO, sequence CTCATACTCT, targeting acpP −5 to +5 (all peptide nucleic acid (PNA)) | ++ | depletion in AcpP levels can be observed from 60 min post-treatment onward | ++ | reduces the levels of acpP mRNA
